In US20210352895A1, “SYNERGISTIC PESTICIDAL COMPOSITIONS AND METHODS FOR DELIVERY OF ACTIVE INGREDIENTS” (0903608 B.C. Ltd., priority 2018, published 2021):
Read-outs that look alike come from different tables or passages of the source.

How the values were obtained:
[1] = tested on: Trichoplusia ni; assay: In-vitro insecticidal efficacy of Entrust SC (spinosad) with saturated and unsaturated aliphatic acids on artificial diet, Abbott and Colby formulae; format: in vivo, Trichoplusia ni (cabbage looper); conditions: Entrust SC 0.034 ppm ([…] spinosad); aliphatic acid (salt) 500 ppm; Abbott-corrected
Experimental: An artificial diet suitable for Trichoplusia ni (cabbage looper caterpillar) was prepared from a commercially available general purpose lepidoptera artificial diet premix (General Purpose Lepidoptera Diet available from Frontier Scientific Services, Newark, Del.) mixed in agar media and then heated to liquify the media. The liquid artificial diet media was then used to fill each well of a 96-well treatment plate with 200 uL of artificial diet media, which was allowed to solidify at room temperature and stored at approximately 4 C.
A 20 uL treatment sample of each treatment formulation was then placed on top of the solidified artificial diet media in each well of the 96 well plates and allowed to dry overnight. The following day, one neonate Trichoplusia ni (cabbage looper) larva (hatched from eggs obtained from the Natural Resource Canada insect research facility in Sault-Ste-Marie, ON, Canada) was added to each well of the plate, and their mortality rate was evaluated after 5 days, to determine the insecticidal efficacy of the Entrust® SC treatment alone, each exemplary unsaturated or saturated aliphatic acid (and salt) alone, and each combination of spinosad (as Entrust® SC) and unsaturated or saturated aliphatic acid (and salt). Each experiment contained 3 replicates.
While for SF<1, antagonism is present and for SF=1, the efficacy of the compounds is merely additive.

[2] = tested on: Botrytis cinerea; assay: Synergistic Growth Inhibition Assay (MIC / FIC index, resazurin, 96-well) on Botrytis cinerea; format: cell-based; conditions: Botrytis cinerea, Botrytis cinerea; for MIC: 48 h
Experimental: (§1) In some embodiments, the synergistic action between the pesticidal active ingredient, and the at least one C4-C10 (or alternatively C11 or C12) saturated or unsaturated aliphatic acid components of the pesticidal compositions according to embodiments of the present disclosure was tested using a Synergistic Growth Inhibition Assay, which is derived from and related to a checkerboard assay as is known in the art for testing of combinations of antimicrobial agents. In the Synergistic Growth Inhibition Assay used in accordance with some embodiments of the present disclosure, multiple dilutions of combinations of pesticidal active ingredient and at least one C4-C10 saturated or unsaturated aliphatic acid agents are tested in individual cells for inhibitory activity against a target pest or pathogenic organism. In one such embodiment, the combinations of pesticidal active ingredient and C4-C10 (or alternatively C11 or C12) saturated or unsaturated aliphatic acid agents may preferably be tested in decreasing concentrations. In a further such embodiment, the combinations of pesticidal active ingredient and C4-C10 (or alternatively C11 or C12) saturated or unsaturated aliphatic acid agents may be tested in increasing concentrations. These multiple combinations of the pesticidal active ingredient and at least one C4-C10 (or alternatively C11 or C12) saturated or unsaturated aliphatic acid agents may be prepared in 96-well microtiter plates. In one such embodiment, the Synergistic Growth Inhibition Assay then comprises rows which each contain progressively decreasing concentrations of the pesticidal active ingredient and one or more C4-C10 (or alternatively C11 or C12) saturated or unsaturated aliphatic acid agents to test for the MIC of the agents in combination at which growth of the target pest or pathogen is inhibited. Thus, each well of the microtiter plate is a unique combination of the two agents, at which inhibitory efficacy of the combination against the target pest or pathogen can be determined.
(§2) In one embodiment according to the present disclosure, for each row of microtiter cells in the Synergistic Growth Inhibition Assay, the FIC index is calculated from the lowest concentration of the pesticidal active ingredient and one or more C4-C10 saturated or unsaturated aliphatic acid agents necessary to inhibit growth of a target pest or pathogen. The FIC of each component is derived by dividing the concentration of the agent present in that well of the microtiter plate by the minimal inhibitory concentration (MIC) needed of that agent alone to inhibit growth of the target pest or pathogen. The FIC index is then the sum of these values for both agents in that well of the microtiter plate. The FIC index is calculated for each row as follows:
(§3) FICindex=MICa/MICA+MICb/MICB
(§4) Fractional inhibitory concentration indices may then used as measure of synergy. […] When the FIC index is equal to 1, the combination is additive.
(§5) Then, serial dilutions of these initial compositions in successive wells in the row of the microtiter plate were used to assay the pesticidal composition under the same conditions to determine the concentration of the composition combining the two agents corresponding to the microtiter well in which growth inhibition of the target pest or organism ceases.
Similarly to as described above, Resazurin was used as an indicator of growth or inhibition of growth of Botrytis cinerea in the exemplary Synergistic Growth Inhibition Assay. In addition to the color change of the resazurin, an optical or visual examination of the microtiter well may also be made to additionally determine the presence of growth or inhibition of growth of the Botrytis cinerea.

[3] = tested on: Fusarium oxysporum; assay: Synergistic Growth Inhibition Assay (MIC / FIC index, resazurin, 96-well) on Fusarium oxysporum; format: cell-based; conditions: for MIC: 48 h
Experimental: as §1, §2, §3, §4, §5
Resazurin dye (also known as Alamar blue dye) was used as an indicator to determine the presence of growth or inhibition of growth of Fusarium oxysporum in the wells of the 96 well microtiter plates used in the exemplary Synergistic Growth Inhibition Assay. In addition to the color change of the resazurin dye in the presence of growth of the Fusarium oxysporum, an optical or visual examination of the microtiter well may also be made to additionally determine the presence of growth or inhibition of growth of the Fusarium oxysporum.

[4] = tested on: Sclerotinia sclerotiorum; assay: Synergistic Growth Inhibition Assay (MIC / FIC index, resazurin, 96-well) on Sclerotinia sclerotiorum; format: cell-based; conditions: for MIC (A): Compound A alone
Experimental: as §1, §2, §3, §4, §5
Similarly to as described above, Resazurin was used as an indicator of growth or inhibition of growth of Sclerotinia sclerotiorum in the exemplary Synergistic Growth Inhibition Assay. In addition to the color change of the resazurin, an optical or visual examination of the microtiter well may also be made to additionally determine the presence of growth or inhibition of growth of the Sclerotinia sclerotiorum.

[5] = Compound A alone, incubation period of 48 hours, read-out: MIC (A)
[6] = Compound A alone, incubation period of 2 days
[7] = Compound A alone, 48 hours incubation
[8] = Fusarium oxysporum, Compound B alone, Fusarium oxysporum, 48 hours incubation, read-out: MIC (B)
[9] = Fusarium oxysporum, Compound B alone, Fusarium oxysporum, incubation period of 48 hours, read-out: MIC (B)
[10] = Sclerotinia sclerotiorum, Compound B alone, Sclerotinia sclerotiorum, incubation period of 7 days, read-out: MIC (B)
[11] = Sclerotinia sclerotiorum, Compound B alone, Sclerotinia sclerotiorum, 7 days incubation, read-out: MIC (B)
[12] = Compound A alone, incubation period of 48 hours
[13] = Sclerotinia sclerotiorum, read-out: MIC (B), Compound B alone, Sclerotinia sclerotiorum, 7 days incubation
[14] = Compound B alone, 48 hours incubation

CCCCCC=CCC(=O)O [3-nonenoic acid]
Observed Efficacy, W (%) [1]: 9.1%

CCCC=CCC(=O)O [3-heptanoic acid]
Observed Efficacy, W (%) [1]: 4.5%

C=CCCCC(=O)O [5-hexenoic acid]
Observed Efficacy, W (%) [1]: 0%

CC1COC(Cn2cncn2)(c2ccc(Oc3ccc(Cl)cc3)cc2Cl)O1 (centres unmarked) [Difenoconazole, reference compound]
MIC [2, 5]: 25.5 µg/mL
MIC (A) [2, 6]: 51 µg/mL
MIC (A) [3, 7]: 51 µg/mL

CCCCC(O)C(=O)O (centres unmarked) [2-hydroxyhexanoic acid]
MIC ([2]; Compound B alone, 48 hours incubation, read-out: MIC (B)): 2500 µg/mL
MIC ([2]; Compound B alone, incubation period of 2 days, read-out: MIC (B)): 2500 µg/mL
MIC [3, 8]: 2500 µg/mL
MIC [3, 9]: 2500 µg/mL
MIC [4, 10]: 2500 µg/mL

CCCC(C)CC(=O)O (centres unmarked) [3-methylhexanoic acid]
MIC [3, 8]: 125 µg/mL
MIC [4, 11]: 125 µg/mL
MIC [4, 10]: 125 µg/mL

CC(C)CC(=O)O [3-methylbutyric acid]
MIC [3, 8]: 625 µg/mL
MIC [4, 11]: 312 µg/mL

N#Cc1c[nH]cc1-c1cccc2c1OC(F)(F)O2 [Fludioxonil, fludioxonil, reference compound]
MIC ([2]; read-out: MIC (A), Compound A alone, incubation period of 2 days): 0.164 µg/mL
MIC ([4]; Sclerotinia sclerotiorum, read-out: MIC (A), Compound A alone, Sclerotinia sclerotiorum, incubation period of 7 days): 0.328 µg/mL

CCCCCCC(O)C(=O)O (centres unmarked) [2-hydroxyoctanoic acid]
MIC [3, 8]: 625 µg/mL
MIC [3, 9]: 625 µg/mL
MIC [4, 10]: 312 µg/mL

CC(C)(C)C(O)(CCc1ccc(Cl)cc1)Cn1cncn1 (centres unmarked) [Tebuconazole, reference compound]
MIC (A) [2, 6]: 112.5 µg/mL
MIC (A) [2, 12]: 112.5 µg/mL
MIC (A) [3, 7]: 225 µg/mL
MIC ([3]; Fusarium oxysporum, Compound A alone, Fusarium oxysporum, incubation period of 48 hours, read-out: MIC (A)): 112 µg/mL
MIC (A) ([4]; Sclerotinia sclerotiorum, 2-fold dilutions, incubation period of 7 days): 112.5 µg/mL

CCCCCC/C=C/C(=O)O [Trans-2 nonenoic acid]
Observed Efficacy, W (%) [1]: 3.6%

C=CCCCCCCCC(=O)O [9-Decenoic acid, 9-decenoic acid]
Observed Efficacy, W (%) [1]: 4.5%

C/C=C/C=C/C(=O)[O-].[K+] [(2E,4E)-2,4 hexadienoic acid, K-salt]
Observed Efficacy, W (%) [1]: 9.1%

CCCCC=CCC(=O)O [3-Octenoic acid, 3-octenoic acid]
Observed Efficacy, W (%) [1]: 0%

CCCCCCCCCCCC(=O)O [Dodecanoic acid, dodecanoic acid]
Observed Efficacy, W (%) [1]: 0%

Cc1cc(C2CC2)nc(Nc2ccccc2)n1 [Cyprodinil, reference compound]
MIC [2, 5]: 9 µg/mL

CCC(O)C(=O)O (centres unmarked) [2-hydroxybutyric acid]
MIC [3, 8]: 5000 µg/mL
MIC [3, 9]: 5000 µg/mL
MIC [4, 11]: 2500 µg/mL
MIC [4, 10]: 2500 µg/mL

O=C(O)CCCCCCCCCCCO [12-hydroxydodecanoic acid]
MIC [4, 13]: 100 µg/mL
MIC ([4]; Sclerotinia sclerotiorum, read-out: MIC (B), Compound B alone, Sclerotinia sclerotiorum, incubation period of 7 days): 100 µg/mL

CC=CC=CC(=O)O [2,4-Dihexenoic acid]
MIC (B) ([2]; Compound B alone, incubation period of 48 hours): 125 µg/mL

C=C(C)[C@@H]1CCC2=CC(=O)C[C@@H](C)[C@]2(C)C1 [Nootkatone (+)]
MIC (A) [2, 12]: 125 µg/mL
MIC (A) ([3]; Compound A alone, Fusarium oxysporum, incubation period of 48 hours): 500 µg/mL
MIC (A) ([3]; Table 60, Compound A = nootkatone(+), alone or in combination with Compound B, incubation period not stated in table (either 24 hours or 4 days)): 500 µg/mL

CCCC/C=C/CC(=O)O [Trans-3 octenoic acid]
Observed Efficacy, W (%) [1]: 4.5%

CCCC(O)CC(=O)O (centres unmarked) [3-Hydroxyhexanoic acid, 3-hydroxyhexanoic acid]
MIC (B) [2, 14]: 2500 µg/mL

CCC(CC)(CC)C(=O)O [2,2-diethylbutyric acid]
MIC [3, 8]: 250 µg/mL
MIC [4, 10]: 250 µg/mL

Cc1cc(C(F)(F)F)nn1CC(=O)N1CCC(c2nc(C3=NOC(c4c(F)cccc4F)C3)cs2)CC1 (centres unmarked) [Oxathiapiprolin, reference compound]
MIC (A) [2, 12]: 500 µg/mL

CC(C)C1C2CCC1c1c(NC(=O)c3cn(C)nc3C(F)F)cccc12 (centres unmarked) [Isopyrazam, reference compound]
MIC (A) [2, 12]: 31.25 µg/mL

CCCCCC(O)CC(=O)O (centres unmarked) [3-hydroxyoctanoic acid]
MIC [3, 9]: 1250 µg/mL
MIC [4, 11]: 625 µg/mL
MIC [4, 10]: 625 µg/mL

CCC(C)CCC(=O)O (centres unmarked) [4-methylhexanoic acid]
MIC ([2]; Compound B alone, incubation period of 48 hours, read-out: MIC (B)): 156 µg/mL
MIC [3, 8]: 156 µg/mL
MIC [4, 11]: 78.1 µg/mL
MIC [4, 10]: 78.1 µg/mL

COC(=O)N(OC)c1ccccc1COc1ccn(-c2ccc(Cl)cc2)n1 [Pyraclostrobin, pyraclostrobin, reference compound]
MIC ([2]; Compound A alone, incubation period of 2 days, read-out: MIC (A)): 15 µg/mL
MIC (A) ([4]; 7 days incubation): 3.75 µg/mL

O=C(O)CCCCCCCCCO [10-hydroxydecanoic acid]
MIC ([2]; read-out: MIC (B), Compound B alone, 48 hours incubation): 500 µg/mL
MIC ([2]; read-out: MIC (B), Compound B alone, incubation period of 2 days): 500 µg/mL
MIC ([3]; Fusarium oxysporum, read-out: MIC (B), Compound B alone, Fusarium oxysporum, 48 hours incubation): 1000 µg/mL
MIC [4, 13]: 1000 µg/mL

CC(O)CC(=O)O (centres unmarked) [3-Hydroxybutyric acid, 3-hydroxybutyric acid]
MIC (B) [2, 14]: 10000 µg/mL
